Results as given in patent publication US20230414700A1, “TG2 INHIBITORS FOR IMPROVING MUCOCILIARY CLEARANCE IN RESPIRATORY DISEASES” (INSERM (INSTITUT NATIONAL DE LA SANTÉ ET DE LA RECHERCHE …, priority 2020, published 2023).
“Also recorded” adds a separate entry of the source. Square brackets hold non-standard residues; d marks the D form. Peptide text beside a SMILES is read from it. * marks the point of attachment. ξ: configuration not given here. DON = [N-]=[N+]=CC(=O)CC[C@H](N)C(=O)O; Ile(3ξ) = CCC(C)[C@H](N)C(=O)O; Cbz = O=C(OCc1ccccc1)*

Columns and labels:
[1] = test system: ALI-regenerated hypersecretory epithelia; test: Mucus (MUC5AC) tethering to the apical surface after extensive apical washes with PBS, immunofluorescence; type: cell-based; settings: IL-13-induced hypersecretory bronchial epithelium reconstituted in vitro at air-liquid interface; n=2
Source text: Whole-mount images represent stacks from optical sections done through the mucus (parallel to the plane of the epithelium). epi, epithelium. Extracellular mucus was quantified after beta-tubulin staining to delineate cell apex, and expressed as sum intensities (in […]) (n=2).
(§1) Methods: The bronchial epithelium from asthmatic patients, cystic fibrosis or control subjects was reconstituted in vitro by culturing cells at the air-liquid interface. Hyper secretory differentiation was modeled by exposing control bronchial epithelial to IL-13. Expression of TG2 and MUC5AC was assessed by RT-qPCR and immunohistochemistry/immunofluorescence. Mucin modification by TG2 was evaluated by BAP incorporation and Western-blot analysis. Mucus tethering to the apical surface was studied by detecting MUC5AC after extensive apical washes with PBS. The role of TG2 was evaluated using the pharmacological inhibitor ZDON. Mucociliary clearance was evaluated by video microscopy using fluorescent microspheres.

[2] = test system: IL-13-stimulated hypersecretory epithelia; test: Mucociliary clearance by video microscopy using fluorescent microspheres; type: cell-based; settings: 30-second image sequence, n=2
Procedure: The final image from a 30-second image sequence (every 5 ms) is shown (ImageJ, Z Project). B: Quantification of travelled distance (ImageJ, Plugin MTrack3). Median values are shown. n=2.
as §1

Question: CCC(C)[C@H](NC(=O)[C@H](CCC(N)=O)NC(=O)[C@H](CCC(=O)C=[N+]=[N-])NC(=O)OCc1ccccc1)C(=O)N[C@H](C(=O)OC)C(C)C (some centres unmarked) [ZDON] (Cbz-[DON]Q[Ile(3ξ)]V-OMe) was tested. Which “MUC5AC tethering to the apical surface of hypersecretory epithelia” value [1] did it give?
Answer: The value was “decreases MUC5AC tethering; also recorded: blocked”.

Question: And the “Mucociliary clearance (travelled distance of fluorescent microspheres)” value [2]?
Answer: The value was “tends to ameliorate mucociliary clearance”.
